Values quoted from earlier work in publication PMC9694544, “Conteltinib (CT-707) in patients with advanced ALK-positive non-small cell lung cancer: a multicenter, open-label, first-in-human phase 1 study” (BMC Medicine, 2022).
Like-named read-outs stand apart in the source and are kept apart here.

Columns and labels:
[1] = tested on: ALK-positive NSCLC; conditions: cited from earlier work
[2] = tested on: patients with ALK-positive NSCLC; conditions: cited from earlier work
[3] = ALK TKI-naïve patients, at RP2D
[4] = patients who received crizotinib previously, at RP2D
[5] = patients who received crizotinib previously, at MTD
[6] = ALK TKI-naïve patients, at the dose around RP2D
[7] = patients who received crizotinib previously, at the dose around RP2D
[8] = patients who received crizotinib previously, at the dose-expansion phase

COc1cc(N2CCC(N3CCN(C)CC3)CC2)ccc1Nc1ncc(Cl)c(Nc2ccccc2P(C)(C)=O)n1 [brigatinib]
ORR [1, 3]: 100%
median PFS [1, 3]: 30.8 months
ORR [1, 4]: 72%
median PFS [1, 4]: 12.9 months
incidence of grade ≥ 3 TRAEs [2]: 36%

Cc1cc(Nc2ncc(Cl)c(Nc3ccccc3S(=O)(=O)C(C)C)n2)c(OC(C)C)cc1C1CCNCC1 [ceritinib]
ORR ([1]; ALK TKI-naïve patients, at MTD): 59%
median PFS ([1]; ALK TKI-naïve patients, at MTD): 18.4 months
ORR [1, 5]: 56%
median PFS [1, 5]: 6.9 months
incidence of grade ≥ 3 TRAEs [2]: 49%
rash [2]: 13%

C[C@@H]1CN(C(=O)c2ccc(NC(=O)c3cc(O[C@H](C)c4c(Cl)ccc(F)c4Cl)c(N)nn3)cc2)C[C@H](C)N1 [ensartinib]
ORR [1, 6]: 80.0%
median PFS [1, 6]: 26.2 months
ORR [1, 7]: 69.0%
median PFS [1, 7]: 9.0 months
incidence of grade ≥ 3 TRAEs [2]: 23%
rash [2]: 56%
rash ([2]; grade ≥ 3): 12%

COc1cc(N2CCC3(CCN(C)CC3)CC2)ccc1Nc1ncc(Cl)c(Nc2ccccc2P(C)(C)=O)n1 [iruplinalkib]
ORR ([1]; ALK TKI-naïve patients, at the dose-expansion phase): 76.3%
ORR [1, 8]: 45.7%
median PFS [1, 8]: 6.9 months
incidence of grade ≥ 3 TRAEs [2]: 35%
rash [2]: 13%
